ChEMBL document CHEMBL1140199, “Synthesis and antimicrobial activity of 2-alkenylchroman-4-ones, 2-alkenylthiochroman-4-ones and 2-alkenylquinol-4-ones” (2008)
In brackets after ≈: the same amount, converted by molar mass. Activity calls are given as the source filed them. No cut-off for these calls is given here.

Assays:
Type in all cases: functional
[1] = test system: Candida maltosa; assay: Antimicrobial activity against Candida maltosa
[2] = test system: Escherichia coli; assay: Antimicrobial activity against Escherichia coli ATCC 11229
[3] = test system: Staphylococcus aureus; assay: Antimicrobial activity against Staphylococcus aureus ATCC 6538; details: for MIC: Staphylococcus aureus, ATCC 6538
[4] = test system: Bacillus subtilis; assay: Antimicrobial activity against Bacillus subtilis ATCC 6051

## C=C(C)C1CC(=O)c2ccccc2O1 (stereo not given)
[1]
  Activity: inactive
[2]
  inhibition zone (IZ): 10 mm
[3]
  Activity: inactive
[4]
  Activity: inactive

## C=CC1CC(=O)c2cc(Br)ccc2O1 (stereo not given)
[3]
  MIC: 5.62 µg/mL (≈ 22.2 µM)

## C=CC1CC(=O)c2cc(Cl)ccc2N1C(=O)OC (stereo not given)
[1]
  Activity: inactive
[2]
  Activity: inactive
[3]
  Activity: inactive
[4]
  Activity: inactive

## C/C=C/C1CC(=O)c2cc(Br)ccc2O1 (stereo not given)
[1]
  Activity: inactive
[2]
  inhibition zone (IZ): 9 mm
[3]
  Activity: inactive
[4]
  Activity: inactive

## C=C(C)C1CC(=O)c2cc(Br)ccc2O1 (stereo not given)
[1]
  Activity: inactive
[2]
  inhibition zone (IZ): 8 mm
[3]
  inhibition zone (IZ): 16 mm
[4]
  Activity: inactive

## C/C=C(\C)C1CC(=O)c2cc(Cl)ccc2O1 (stereo not given)
[1]
  Activity: inactive
[2]
  Activity: inactive
[3]
  Activity: inactive
[4]
  Activity: inactive

## C=CC1CC(=O)c2c(Cl)cc(Cl)cc2N1C(=O)OC (stereo not given)
[1]
  Activity: inactive
[2]
  Activity: inactive
[3]
  Activity: inactive
[4]
  Activity: inactive

## C=CC1CC(=O)c2cc(F)ccc2N1C(=O)OC (stereo not given)
[1]
  Activity: inactive
[2]
  Activity: inactive
[3]
  Activity: inactive
[4]
  Activity: inactive

## C=CC1CC(=O)c2cc(Cl)ccc2S1 (stereo not given)
[1]
  inhibition zone (IZ): 6 mm
[2]
  Activity: inactive
[3]
  Activity: inactive
[4]
  Activity: inactive

## C=CC1CC(=O)c2cc(Cl)ccc2O1 (stereo not given)
[1]
  inhibition zone (IZ): 40 mm
[2]
  inhibition zone (IZ): 17 mm
[2]; Escherichia coli, ATCC 11229
  MIC: 4.17 µg/mL (≈ 20 µM)
[3]
  inhibition zone (IZ): 40 mm
  MIC: 7.3 µg/mL (≈ 35 µM)
[4]
  inhibition zone (IZ): 29 mm
[4]; Bacillus subtilis, ATCC 6051
  MIC: 4.17 µg/mL (≈ 20 µM)

## C=CC1CC(=O)c2cc(Br)ccc2N1C(=O)OC (stereo not given)
[1]
  Activity: inactive
[2]
  Activity: inactive
[3]
  Activity: inactive
[4]
  Activity: inactive

## C=C(C)C1CC(=O)c2ccccc2S1 (stereo not given)
[1]
  Activity: inactive
[2]
  Activity: inactive
[3]
  Activity: inactive
[4]
  Activity: inactive

## C=CC1CC(=O)c2ccccc2S1 (stereo not given)
[1]
  inhibition zone (IZ): 6 mm
[2]
  Activity: inactive
[3]
  Activity: inactive
[4]
  Activity: inactive

## C=C(C)C1CC(=O)c2cc(Cl)ccc2O1 (stereo not given)
[1]
  Activity: inactive
[2]
  inhibition zone (IZ): 9 mm
[3]
  inhibition zone (IZ): 17 mm
[4]
  Activity: inactive

## C/C=C(\C)C1CC(=O)c2cc(Br)ccc2O1 (stereo not given)
[1]
  Activity: inactive
[2]
  Activity: inactive
[3]
  Activity: inactive
[4]
  Activity: inactive

## NYSTATIN
[1]
  inhibition zone (IZ): 28 mm

## C=C(C)C1CC(=O)c2cc(Cl)ccc2S1 (stereo not given)
[1]
  Activity: inactive
[2]
  Activity: inactive
[3]
  Activity: inactive
[4]
  Activity: inactive

## C/C=C/C1CC(=O)c2cc(Cl)ccc2O1 (stereo not given)
[1]
  Activity: inactive
[2]
  inhibition zone (IZ): 10 mm
[3]
  Activity: inactive
[4]
  Activity: inactive

## C=C(C)C1CC(=O)c2cc(Cl)ccc2N1C(=O)OC (stereo not given)
[1]
  Activity: inactive
[2]
  Activity: inactive
[3]
  Activity: inactive
[4]
  Activity: inactive

## C=CC1CC(=O)c2ccccc2O1 (stereo not given)
[1]
  Activity: inactive
[2]
  Activity: inactive
[3]
  Activity: inactive
[4]
  Activity: inactive

## CC1(C)S[C@@H]2[C@H](NC(=O)[C@H](N)c3ccccc3)C(=O)N2[C@H]1C(=O)O [AMPICILLIN]
[2]
  inhibition zone (IZ): 19 mm
[3]
  inhibition zone (IZ): 27 mm
[4]
  inhibition zone (IZ): 25 mm
